# Test system: Calu-1 cells
# Test: Anti-proliferation (viability) of NSCLC Calu-1 cells, 3 days (Table 7, FIG. 2B)
# Type: cell-based
# Conditions: Homo sapiens, 72 h; Calu-1 cells, 3 days, 10-point serial dilution; read-out: GI IC50 in Calu-1
# Protocol: To evaluate anti-proliferation activities of heterobifunctional compounds, NSCLC Calu-1 or ER+ breast cancer T47D cells were treated with selected heterobifunctional compounds following a 10-point serial dilution for 3 or 6 days, respectively.
# To verify that heterobifunctional compound-mediated degradation is dependent on the binding to CDK4-cyclin D complex, a negative control compound, CPD-143, which is derived from active heterobifunctional compound CPD-10 was designed. CPD-143 bears the same DDB1 ligand and linker as CPD-10 but with a modified warhead to impair the binding of the control compound to CDK4.
row,SMILES,IC50 [nM]
1,"[2H]C([2H])([2H])Nc1ccc(C(=O)Nc2ccc(N(C)C)nn2)c(N[C@H]2CC[C@H](C(=O)N3CCN(Cc4ccc(Nc5ncc6c(C)c(C(C)=O)c(=O)n(C7CCCC7)c6n5)nc4)CC3)CC2)n1 [CPD-495, 2-((4-(4-((6-((6-acetyl-8-cyclopentyl-5-methyl-7-oxo-7,8-dihydropyrido[2,3-d]pyrimidin-2-yl)amino)pyridin-3-yl)methyl)piperazine-1-carbonyl)cyclohexyl)amino)-N-(6-(dimethylamino)pyridazin-3-yl)-6-((methyl-d3)amino)nicotinamide]",≥ 50
2,"CC(=O)c1c(C)c2cnc(Nc3ccc(N4CCC5(CCN(CC(=O)NC67CC(Nc8nc(NC(C)C)ccc8C(=O)Nc8ccc(N(C)C)nn8)(C6)C7)C5)C4)cn3)nc2n(C2CCCC2)c1=O (stereo not shown) [CPD-496, 2-((3-(2-(7-(6-((6-acetyl-8-cyclopentyl-5-methyl-7-oxo-7,8-dihydropyrido[2,3-d]pyrimidin-2-yl)amino)pyridin-3-yl)-2,7-diazaspiro[4.4]nonan-2-yl)acetamido)bicyclo[1.1.1]pentan-1-yl)amino)-N-(6-(dimethylamino)pyridazin-3-yl)-6-(isopropylamino)nicotinamide]",≤ 10
3,"CC(=O)c1c(C)c2cnc(Nc3ccc(CN4CC5(C4)CN(C(=O)CN4CC6(CC(Nc7nc(NC(C)C)ccc7C(=O)Nc7ccc(N(C)C)nn7)C6)C4)C5)cn3)nc2n(C2CCCC2)c1=O [CPD-497, 2-((2-(2-(6-((6-((6-acetyl-8-cyclopentyl-5-methyl-7-oxo-7,8-dihydropyrido[2,3-d]pyrimidin-2-yl)amino)pyridin-3-yl)methyl)-2,6-diazaspiro[3.3]heptan-2-yl)-2-oxoethyl)-2-azaspiro[3.3]heptan-6-yl)amino)-N-(6-(dimethylamino)pyridazin-3-yl)-6-(isopropylamino) nicotinamide]",≥ 50
4,"CC(=O)c1c(C)c2cnc(Nc3ccc(CN4CC5(C4)CN(C(=O)CN4CCC(Nc6nc(NC(C)C)ccc6C(=O)Nc6ccc(N(C)C)nn6)CC4)C5)cn3)nc2n(C2CCCC2)c1=O [CPD-498, 2-((1-(2-(6-((6-((6-acetyl-8-cyclopentyl-5-methyl-7-oxo-7,8-dihydropyrido[2,3-d]pyrimidin-2-yl)amino)pyridin-3-yl)methyl)-2,6-diazaspiro[3.3]heptan-2-yl)-2-oxoethyl)piperidin-4-yl)amino)-N-(6-(dimethylamino)pyridazin-3-yl)-6-(isopropylamino)nicotinamide]",≥ 50
5,"COc1ccc(NC(=O)c2ccc(NC(C)C)nc2N[C@H]2CC[C@H](C(=O)N3CCC(N4CCN(c5ccc(Nc6ncc7c(C)c(C(C)=O)c(=O)n(C8CCCC8)c7n6)nc5)CC4)C3)CC2)nn1 (stereo partly drawn) [CPD-500, 2-((trans-4-(3-(4-(6-((6-acetyl-8-cyclopentyl-5-methyl-7-oxo-7,8-dihydropyrido[2,3-d]pyrimidin-2-yl)amino)pyridin-3-yl)piperazin-1-yl)pyrrolidine-1-carbonyl)cyclohexyl)amino)-6-(isopropylamino)-N-(6-methoxypyridazin-3-yl)nicotinamide]",≤ 10
6,"CC(=O)c1c(C)c2cnc(Nc3ccc(CN4CCN(CC(=O)NC56CC(Nc7nc(NC(C)C)ccc7C(=O)Nc7ccc(N(C)C)nn7)(C5)C6)CC4)cn3)nc2n(C2CCCC2)c1=O [CPD-502, 2-((3-(2-(4-((6-((6-acetyl-8-cyclopentyl-5-methyl-7-oxo-7,8-dihydropyrido[2,3-d]pyrimidin-2-yl)amino)pyridin-3-yl)methyl)piperazin-1-yl)acetamido)bicyclo[1.1.1]pentan-1-yl)amino)-N-(6-(dimethylamino)pyridazin-3-yl)-6-(isopropylamino)nicotinamide]",10 to 50
7,"[2H]C([2H])([2H])Nc1ccc(C(=O)Nc2ccc(N(C)C)nn2)c(NC2CC3(C2)CN(CC(=O)N2CCC4(CCN(Cc5ccc(Nc6ncc7c(C)c(C(C)=O)c(=O)n(C8CCCC8)c7n6)nc5)C4)C2)C3)n1 (stereo not shown) [CPD-507, 2-((2-(2-(7-((6-((6-acetyl-8-cyclopentyl-5-methyl-7-oxo-7,8-dihydropyrido[2,3-d]pyrimidin-2-yl)amino)pyridin-3-yl)methyl)-2,7-diazaspiro[4.4]nonan-2-yl)-2-oxoethyl)-2-azaspiro[3.3]heptan-6-yl)amino)-N-(6-(dimethylamino)pyridazin-3-yl)-6-((methyl-d3)amino)nicotinamide]",≥ 50
8,"CC(=O)c1c(C)c2cnc(Nc3ccc(CN4CC5(CN(CC(=O)N6CC7(CC(Nc8nc(NC(C)C)ccc8C(=O)Nc8ccc(N(C)C)nn8)C7)C6)C5)C4)cn3)nc2n(C2CCCC2)c1=O [CPD-508, 2-((2-(2-(6-((6-((6-acetyl-8-cyclopentyl-5-methyl-7-oxo-7,8-dihydropyrido[2,3-d]pyrimidin-2-yl)amino)pyridin-3-yl)methyl)-2,6-diazaspiro[3.3]heptan-2-yl)acetyl)-2-azaspiro[3.3]heptan-6-yl)amino)-N-(6-(dimethylamino)pyridazin-3-yl)-6-(isopropylamino)nicotinamide]",≥ 50
9,"CC(=O)c1c(C)c2cnc(Nc3ccc(CN4CC5(CN(CC(=O)N6CCC(Nc7nc(NC(C)C)ccc7C(=O)Nc7ccc(N(C)C)nn7)CC6)C5)C4)cn3)nc2n(C2CCCC2)c1=O [CPD-509, 2-((1-(2-(6-((6-((6-acetyl-8-cyclopentyl-5-methyl-7-oxo-7,8-dihydropyrido[2,3-d]pyrimidin-2-yl)amino)pyridin-3-yl)methyl)-2,6-diazaspiro[3.3]heptan-2-yl)acetyl)piperidin-4-yl)amino)-N-(6-(dimethylamino)pyridazin-3-yl)-6-(isopropylamino)nicotinamide]",≥ 50

# More lines, now with the values ahead:
row,IC50 [nM],SMILES
1,≥ 50,"CC(=O)c1c(C)c2cnc(Nc3ccc(CN4CCN(C5CCN(C(=O)C6CC(Nc7nc(NC(C)C)ccc7C(=O)Nc7ccc(N(C)C)nn7)C6)C5)CC4)cn3)nc2n(C2CCCC2)c1=O (stereo not shown) [CPD-510, 2-((3-(3-(4-((6-((6-acetyl-8-cyclopentyl-5-methyl-7-oxo-7,8-dihydropyrido[2,3-d]pyrimidin-2-yl)amino)pyridin-3-yl)methyl)piperazin-1-yl)pyrrolidine-1-carbonyl)cyclobutyl)amino)-N-(6-(dimethylamino)pyridazin-3-yl)-6-(isopropylamino)nicotinamide]"
2,≥ 50,"CC(=O)c1c(C)c2cnc(Nc3ccc(CN4CCN(C5CCN(C(=O)C6CCC(Nc7nc(NC(C)C)ccc7C(=O)Nc7ccc(N(C)C)nn7)C6)C5)CC4)cn3)nc2n(C2CCCC2)c1=O (stereo not shown) [CPD-511, 2-((3-(3-(4-((6-((6-acetyl-8-cyclopentyl-5-methyl-7-oxo-7,8-dihydropyrido[2,3-d]pyrimidin-2-yl)amino)pyridin-3-yl)methyl)piperazin-1-yl)pyrrolidine-1-carbonyl)cyclopentyl)amino)-N-(6-(dimethylamino)pyridazin-3-yl)-6-(isopropylamino)nicotinamide]"
3,10 to 50,"CC(=O)c1c(C)c2cnc(Nc3ccc(CN4CCN(C5CCN(C(=O)[C@H]6CC[C@H](Nc7nc(NC(C)C)ccc7C(=O)Nc7ccc(N(C)C)nn7)CC6)C5)CC4)cn3)nc2n(C2CCCC2)c1=O (stereo partly shown) [CPD-512, 2-((4-(3-(4-((6-((6-acetyl-8-cyclopentyl-5-methyl-7-oxo-7,8-dihydropyrido[2,3-d]pyrimidin-2-yl)amino)pyridin-3-yl)methyl)piperazin-1-yl)pyrrolidine-1-carbonyl)cyclohexyl)amino)-N-(6-(dimethylamino)pyridazin-3-yl)-6-(isopropylamino)nicotinamide]"
4,≥ 50,"CNc1ccc(C(=O)Nc2ccc(N(C)C)nn2)c(NC2CN(CC(=O)N3CCN(Cc4ccc(Nc5ncc6c(C)c(C(C)=O)c(=O)n(C7CCCC7)c6n5)nc4)CC3)C2)n1 [CPD-513, 2-((1-(2-(4-((6-((6-acetyl-8-cyclopentyl-5-methyl-7-oxo-7,8-dihydropyrido[2,3-d]pyrimidin-2-yl)amino)pyridin-3-yl)methyl)piperazin-1-yl)-2-oxoethyl)azetidin-3-yl)amino)-N-(6-(dimethylamino)pyridazin-3-yl)-6-(methylamino)nicotinamide]"
5,≥ 50,"CC(=O)c1c(C)c2cnc(Nc3ccc(N4CCN(CC(=O)NC5CC6(C5)CC(Nc5nc(NC(C)C)ccc5C(=O)Nc5cc(C)n(C(F)(F)F)n5)C6)CC4)cn3)nc2n(C2CCCC2)c1=O (stereo not shown) [CPD-514, 2-((6-(2-(4-(6-((6-acetyl-8-cyclopentyl-5-methyl-7-oxo-7,8-dihydropyrido[2,3-d]pyrimidin-2-yl)amino)pyridin-3-yl)piperazin-1-yl)acetamido)spiro[3.3]heptan-2-yl)amino)-6-(isopropylamino)-N-(5-methyl-1-(trifluoromethyl)-1H-pyrazol-3-yl)nicotinamide]"
6,10 to 50,"CC(=O)c1c(C)c2cnc(Nc3ccc(N4CCN(C5CCN(C(=O)C6(C)CCC(Nc7nc(NC(C)C)ccc7C(=O)Nc7ccc(N(C)C)nn7)CC6)C5)CC4)cn3)nc2n(C2CCCC2)c1=O (stereo not shown) [CPD-516, 2-((4-(3-(4-(6-((6-acetyl-8-cyclopentyl-5-methyl-7-oxo-7,8-dihydropyrido[2,3-d]pyrimidin-2-yl)amino)pyridin-3-yl)piperazin-1-yl)pyrrolidine-1-carbonyl)-4-methylcyclohexyl)amino)-N-(6-(dimethylamino)pyridazin-3-yl)-6-(isopropylamino)nicotinamide]"
7,≥ 50,"CC(=O)c1c(C)c2cnc(Nc3ccc(N4CCC(N(C)C(=O)CN5CC(Nc6nc(NC(C)C)ccc6C(=O)Nc6ccc(N(C)C)nn6)C5)CC4)cn3)nc2n(C2CCCC2)c1=O [CPD-517, 2-((1-(2-((1-(6-((6-acetyl-8-cyclopentyl-5-methyl-7-oxo-7,8-dihydropyrido[2,3-d]pyrimidin-2-yl)amino)pyridin-3-yl)piperidin-4-yl)(methyl)amino)-2-oxoethyl)azetidin-3-yl)amino)-N-(6-(dimethylamino)pyridazin-3-yl)-6-(isopropylamino)nicotinamide]"
